Test [1] relates to F98 glioma cells. Put plainly: Cellular uptake of boron in F98 glioma cells (16 hours incubation, DCP atomic emission spectroscopy). In kind it is cell-based. Particulars: for cellular uptake of boron at 16 hours: F98 glioma cells; for Boron Conc. /g, 16 hrs incubation: F98 Glioma Cells. The method, then: To illustrate the uptake and retention of the various boron-containing compounds as taught hereinabove, there were evaluated 5'-O-(o-carboran-1-ylmethyl)uridine of FIG. 1, and 3-O-(o-carboran-1-ylmethyl)-D-glucose of FIG. 2 in F98 glioma cells. The cellular uptake of boron at 16 hours for the compound of FIG. 1 was 83.8 micrograms of boron per gram of cells. The cellular uptake of boron at 16 hours for the compound of FIG. 2 was 65.2 micrograms of boron per gram of cells. […] This is an unexpected improvement in boron uptake and retention achieved by the present invention, relative to conventional Na2 B12 H11 SH.
(§1) Semiconfluent F98 glioma cells were incubated with the compound for 16 hours and after two washings with serum-free media, the cells were trypsinized, washed twice again and aliquots were analyzed for boron by Direct Current Plasma (DCP) Atomic Emission Spectroscopy. For the boron analyses there was used the following instrumentation and sample preparation for analysis:
(§2) A Spectraspan VB Direct Current Plasma-Atomic Emission Spectrometer, (Model #DCP-AES, Applied Research Laboratories, Brea, Calif.) was used for the boron determinations. This instrument combines a high resolution spectrometer with a high resolution Echelle grating and prism. The plasma source is argon gas heated to a temperature of 6000°-7000° K. The instrument settings used for analysis were: wave length 249.773 nm, argon flow 7L/min sleeve 50 psi, ceramic nebulizer 20 psi, entrance slits […], as predetermined by the manufacturer. The viewing height was […] between the arms of the "V" of the inverted "Y" configuration created by the three electrodes. The liquid uptake rate was approximately 2 mL/min. The operating power, once the plasma was established, was ^~ 40 V in the jet power supply with a 7 amp constant current output. With the operating parameters used no background correction was needed. Integration times and gain had been optimized by the manufacturer and were preset in the computer software. These particular parameters are not user alterable.
(§3) One to 2 mL of concentrated sulfuric acid, which was adequate for up to 1 g of tissue or cells, were added to 150×16 mm Pyrex culture tubes, and these were placed in a mineral oil bath, heated to 100° C. in an exhaust hood and stirred intermittently for one hour. Since no interference with the boron signal was found with the sulfuric acid-hydrogen peroxide cocktail, the amount of sulfuric acid used in digestion was determined by the ease of digestion for a particular sample, rather than by any specific ratio of sample weight to acid volume. The amount and type of tissue were critical factors for successful digestion. If the amount of tissue or cells approached 1 gram or more, there was more chance for overheating and loss of sample by bubbling. If sample size was small (<200 mg) there was more flexibility in terms of acid volume and digestion time.

Test [2] has as its system F98 glioma cells. Put plainly: Persistence (retention) of boron in F98 glioma cells. In kind it is cell-based. The method, then: as §1, §2, §3
The results for cellular uptake and retention (i.e. persistence studies) for certain compounds of this invention compared to the clinically-used Na2 B12 H11 SH compound are shown in the following TABLE 1.

The mark [3] stands for this setting: Incubating Media […], + approximates the blank value for cells.

Values joined by “and” are separate entries in the source; they are usually repeats but may differ in a detail not shown here. Equal values may be shown once.

In the case of “3-O-(o-Carborany-1-ylmethyl)-D-glucose [FIG. 2]”, the “cellular uptake of boron at 16 hours” value in test [1] is 65.2 micrograms of boron per gram of cells.

Take “sodium mercaptoundecahydro-closo-dodecaborane [Na2 B12 H11 SH]”: the “Boron Conc. /g, 16 hrs incubation” value in test [1] (Boron Conc. in Incubating Media 14.6 µg/ml) was determined as 4.3 g⁻¹; in test [1] (Boron Conc. in Incubating Media 58.0 µg/ml) it was 7.2 g⁻¹; in test [1] (Boron Conc. in Incubating Media 116.0 µg/ml), 26.7 g⁻¹. Moreover, the “cellular uptake of boron at 16 hours” value in test [1] is given as “about 2.0 micrograms of boron per gram of cells”. Moreover, the “Persistence Studies, 12 hrs, B/g” value in test [2] (setting [3]) was 3.1 B/g and 2.8 B/g and 3.4 B/g. Besides, the “Persistence Studies, 24 hrs, B/g” value in test [2] (setting [3]) is “.4 B/g and .8 B/g and 1.8 B/g”. The “time to attain background levels (rapidly removed)” value in test [2] (F98 glioma cells) was 6 to 12 h.

As for “5'-O-(o-Carboran-1-ylmethyl)uridine [FIG. 1]”, the “Boron Conc. /g, 16 hrs incubation” value in test [1] (Boron Conc. in Incubating Media 13.5 µg/ml) was 88.9 g⁻¹. In test [1], the “cellular uptake of boron at 16 hours” value is on record as 83.8 micrograms of boron per gram of cells. Moreover, in test [2] (Incubating Media […]), the “Persistence Studies, 12 hrs, B/g” value is given as 23.9 B/g and the “Persistence Studies, 24 hrs, B/g” value is reported as 19.3 B/g. Also, the “Persistence Studies, 48 hrs, B/g” value in test [2] (48 hrs, Incubating Media […]) was 10.5 B/g.

These data come from patent US5466679A, “Carboranyl uridines and their use in boron neutron capture therapy” (The Ohio State University Research Foundation, priority 1994, dated 1995).
